EP4483954A1 (Masarykova Univerzita, priority 2023, dated 2025)
pIC50: −log10 of the molar value.

What was measured:
Type in all cases: biochemical
TAF1L(h) = biological target: T1, TAF1L(h) (Homo sapiens, UniProt Q8IZX4); assay: radiometric kinase assay (KinaseProfiler, Eurofins), TAF1L; conditions: in vitro radiometric kinase assay, tested at 1 nM to 10 000 nM, no pre-incubation; read-out: inhibitory activities (IC50 values) TAF1L
T1 construct: purchased Eurofins (KinaseProfiler)
Method: (§1) The compounds were profiled in the radiometric assays (KinaseProfiler, Eurofins).
(§2) Briefly, kinases were diluted in the buffer shown below prior to addition to the reaction mix: • CDKL3, TAF1L: 20 mM Tris/HCl pH 8.5, 0.2 mM EDTA, 0.1% β-mercaptoethanol, 0.01% Brij-35, 5% glycerol, 1 mg/ml BSA; • Haspin: 15 mM MOPS, 0.75 mM EDTA, 0.0075% Brij-35, 3.75% Glycerol, 150 mM NaCl, 0.1% β-mercaptoethanol, 1 mg/mLBSA; • CDKL4, CLK2, PIM1, TRB2: […], 1 mM EDTA, 0.01% Brij-35, 5% Glycerol, 0.1% β-mercaptoethanol, 1 mg/mL BSA.
(§3) All compounds were prepared to 50x final assay concentration in 100% DMSO. This working stock of the compound was added to the assay well as the first component in the reaction, followed by the remaining components as detailed in the general assay protocols below. There was no pre-incubation step between the compound and the kinase prior to initiation of the reaction.
(§4) TAF1L(h) was incubated with 20 mM Tris/HCl pH 8.5, 0.2 mM EDTA, 250 µM RRRFRPASPLRGPPK (SEQ ID NO. 1), 10 mM magnesium acetate and γ-^33P-ATP (specific activity and concentration as required). The reaction was initiated by the addition of the Mg/ATP mix. After incubation for 120 minutes at room temperature, the reaction was stopped by the addition of phosphoric acid to a concentration of 0.5%. An aliquot of the stopped reaction was spotted onto a filter and washed four times for 4 minutes in 0.425% phosphoric acid and once in methanol prior to drying and scintillation counting.
(§5) Kinase activity data were expressed as the percent remaining kinase activity in tested samples compared to the vehicle (DMSO) reactions. The compounds were tested at the following concentrations: 1 nM, 3 nM, 10 nM, 30 nM, 100 nM, 300 nM, 1000 nM, 3000 nM, and 10 000 nM; IC50 values and curve fits were then obtained.

PIM1 (h) = biological target: T2, PIM1 (h) (Homo sapiens, UniProt P11309); assay: radiometric kinase assay (KinaseProfiler, Eurofins), PIM1; conditions: in vitro radiometric kinase assay, tested at 1 nM to 10 000 nM, no pre-incubation; read-out: inhibitory activities (IC50 values) PIM1
T2 construct: purchased Eurofins (KinaseProfiler)
T2 sequence (P11309 whole entry): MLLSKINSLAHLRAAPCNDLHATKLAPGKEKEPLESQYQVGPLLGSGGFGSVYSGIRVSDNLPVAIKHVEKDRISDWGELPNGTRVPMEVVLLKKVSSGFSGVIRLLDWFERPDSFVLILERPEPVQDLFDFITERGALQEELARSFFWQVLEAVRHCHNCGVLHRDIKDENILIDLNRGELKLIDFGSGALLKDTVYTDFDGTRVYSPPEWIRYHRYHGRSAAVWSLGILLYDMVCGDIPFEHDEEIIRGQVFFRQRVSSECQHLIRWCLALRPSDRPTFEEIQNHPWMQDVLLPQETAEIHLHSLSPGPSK
Method: as §1, §2, §3
(§6) PIM1 (h) was incubated with 8 mM MOPS pH 7.0, 0.2 mM EDTA, 100 µM KKRNRTLTV (SEQ ID NO. 4), 10 mM magnesium acetate and γ-^33P-ATP (specific activity and concentration as required). The reaction was initiated by the addition of the Mg/ATP mix. After incubation for 40 minutes at room temperature, the reaction was stopped by the addition of phosphoric acid to a concentration of 0.5%. An aliquot of the reaction was then spotted onto a filter and washed four times for 4 minutes in 0.425% phosphoric acid and once in methanol prior to drying and scintillation counting.
as §5

CLK2 (h) = biological target: T3, CLK2 (h) (Homo sapiens, UniProt P49760); assay: radiometric kinase assay (KinaseProfiler, Eurofins), CLK2; conditions: in vitro radiometric kinase assay, tested at 1 nM to 10 000 nM, no pre-incubation; read-out: inhibitory activities (IC50 values) CLK2
T3 construct: purchased Eurofins (KinaseProfiler)
T3 sequence (P49760 whole entry): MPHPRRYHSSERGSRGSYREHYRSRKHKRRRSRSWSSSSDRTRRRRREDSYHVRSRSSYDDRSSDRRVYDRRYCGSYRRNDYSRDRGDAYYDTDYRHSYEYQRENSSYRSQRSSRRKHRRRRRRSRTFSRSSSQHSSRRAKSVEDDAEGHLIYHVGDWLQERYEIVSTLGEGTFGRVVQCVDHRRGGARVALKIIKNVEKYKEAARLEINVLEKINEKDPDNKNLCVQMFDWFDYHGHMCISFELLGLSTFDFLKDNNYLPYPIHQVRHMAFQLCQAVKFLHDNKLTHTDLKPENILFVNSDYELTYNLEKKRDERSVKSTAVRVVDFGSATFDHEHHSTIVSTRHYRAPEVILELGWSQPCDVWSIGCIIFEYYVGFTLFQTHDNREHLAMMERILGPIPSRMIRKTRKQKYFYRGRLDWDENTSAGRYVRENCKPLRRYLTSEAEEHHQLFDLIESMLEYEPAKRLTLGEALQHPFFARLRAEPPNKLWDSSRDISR
Method: as §1, §2, §3
as §6, with “CLK2” for “PIM1”, “20” for “100”, “[…](p)EDEEE” for “KKRNRTLTV”, “2),” for “4),”
as §5

DYRK2 (h) = biological target: T4, DYRK2 (h) (Homo sapiens, UniProt Q92630); assay: radiometric kinase assay (KinaseProfiler, Eurofins), DYRK2; conditions: in vitro radiometric kinase assay, tested at 1 nM to 10 000 nM, no pre-incubation; read-out: inhibitory activities (IC50 values) DYRK2
T4 construct: purchased Eurofins (KinaseProfiler)
T4 sequence (Q92630 1-601): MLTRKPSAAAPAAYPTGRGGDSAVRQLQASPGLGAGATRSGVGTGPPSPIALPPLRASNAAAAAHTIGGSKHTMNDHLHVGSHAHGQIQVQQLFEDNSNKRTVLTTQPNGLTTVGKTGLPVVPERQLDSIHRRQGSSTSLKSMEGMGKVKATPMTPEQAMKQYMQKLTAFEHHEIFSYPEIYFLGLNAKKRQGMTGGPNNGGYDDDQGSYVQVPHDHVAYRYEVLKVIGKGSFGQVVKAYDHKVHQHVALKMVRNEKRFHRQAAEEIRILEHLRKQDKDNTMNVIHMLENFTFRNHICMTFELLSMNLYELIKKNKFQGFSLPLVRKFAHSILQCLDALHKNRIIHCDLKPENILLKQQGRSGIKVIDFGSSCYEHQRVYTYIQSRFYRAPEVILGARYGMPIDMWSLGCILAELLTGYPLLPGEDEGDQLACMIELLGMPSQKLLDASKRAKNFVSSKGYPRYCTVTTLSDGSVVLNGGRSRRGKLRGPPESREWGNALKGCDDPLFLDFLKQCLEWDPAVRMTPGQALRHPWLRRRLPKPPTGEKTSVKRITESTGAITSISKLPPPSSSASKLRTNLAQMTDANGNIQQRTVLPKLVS
Method: as §1, §3
as §6, with “DYRK2” for “PIM1”, “2 mg/mL casein,” for “100 µM KKRNRTLTV (SEQ ID NO. 4),”
as §5

CDKL4(h) = biological target: T5, CDKL4(h) (Homo sapiens, UniProt Q5MAI5); assay: radiometric kinase assay (KinaseProfiler, Eurofins), CDKL4; conditions: in vitro radiometric kinase assay, tested at 1 nM to 10 000 nM, no pre-incubation; read-out: inhibitory activities (IC50 values) CDKL4
T5 construct: purchased Eurofins (KinaseProfiler)
T5 sequence (Q5MAI5 whole entry): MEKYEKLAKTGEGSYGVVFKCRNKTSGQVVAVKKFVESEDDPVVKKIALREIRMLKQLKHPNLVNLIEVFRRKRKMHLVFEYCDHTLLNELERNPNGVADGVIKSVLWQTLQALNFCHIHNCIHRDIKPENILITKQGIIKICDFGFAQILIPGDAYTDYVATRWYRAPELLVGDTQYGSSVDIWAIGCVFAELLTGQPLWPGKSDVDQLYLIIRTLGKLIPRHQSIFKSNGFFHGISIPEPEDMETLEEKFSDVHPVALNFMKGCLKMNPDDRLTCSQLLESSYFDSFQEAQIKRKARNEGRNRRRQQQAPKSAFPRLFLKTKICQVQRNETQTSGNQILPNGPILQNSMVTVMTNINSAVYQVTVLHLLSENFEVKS
Method: as §1, §2, §3
as §4, with “CDKL4(h) was” for “TAF1L(h) was”, “with 8” for “with 20”, “mM MOPS” for “mM Tris/HCl”, “pH 7.0,” for “pH 8.5,”
as §5

T1 sequence (Q8IZX4 whole entry): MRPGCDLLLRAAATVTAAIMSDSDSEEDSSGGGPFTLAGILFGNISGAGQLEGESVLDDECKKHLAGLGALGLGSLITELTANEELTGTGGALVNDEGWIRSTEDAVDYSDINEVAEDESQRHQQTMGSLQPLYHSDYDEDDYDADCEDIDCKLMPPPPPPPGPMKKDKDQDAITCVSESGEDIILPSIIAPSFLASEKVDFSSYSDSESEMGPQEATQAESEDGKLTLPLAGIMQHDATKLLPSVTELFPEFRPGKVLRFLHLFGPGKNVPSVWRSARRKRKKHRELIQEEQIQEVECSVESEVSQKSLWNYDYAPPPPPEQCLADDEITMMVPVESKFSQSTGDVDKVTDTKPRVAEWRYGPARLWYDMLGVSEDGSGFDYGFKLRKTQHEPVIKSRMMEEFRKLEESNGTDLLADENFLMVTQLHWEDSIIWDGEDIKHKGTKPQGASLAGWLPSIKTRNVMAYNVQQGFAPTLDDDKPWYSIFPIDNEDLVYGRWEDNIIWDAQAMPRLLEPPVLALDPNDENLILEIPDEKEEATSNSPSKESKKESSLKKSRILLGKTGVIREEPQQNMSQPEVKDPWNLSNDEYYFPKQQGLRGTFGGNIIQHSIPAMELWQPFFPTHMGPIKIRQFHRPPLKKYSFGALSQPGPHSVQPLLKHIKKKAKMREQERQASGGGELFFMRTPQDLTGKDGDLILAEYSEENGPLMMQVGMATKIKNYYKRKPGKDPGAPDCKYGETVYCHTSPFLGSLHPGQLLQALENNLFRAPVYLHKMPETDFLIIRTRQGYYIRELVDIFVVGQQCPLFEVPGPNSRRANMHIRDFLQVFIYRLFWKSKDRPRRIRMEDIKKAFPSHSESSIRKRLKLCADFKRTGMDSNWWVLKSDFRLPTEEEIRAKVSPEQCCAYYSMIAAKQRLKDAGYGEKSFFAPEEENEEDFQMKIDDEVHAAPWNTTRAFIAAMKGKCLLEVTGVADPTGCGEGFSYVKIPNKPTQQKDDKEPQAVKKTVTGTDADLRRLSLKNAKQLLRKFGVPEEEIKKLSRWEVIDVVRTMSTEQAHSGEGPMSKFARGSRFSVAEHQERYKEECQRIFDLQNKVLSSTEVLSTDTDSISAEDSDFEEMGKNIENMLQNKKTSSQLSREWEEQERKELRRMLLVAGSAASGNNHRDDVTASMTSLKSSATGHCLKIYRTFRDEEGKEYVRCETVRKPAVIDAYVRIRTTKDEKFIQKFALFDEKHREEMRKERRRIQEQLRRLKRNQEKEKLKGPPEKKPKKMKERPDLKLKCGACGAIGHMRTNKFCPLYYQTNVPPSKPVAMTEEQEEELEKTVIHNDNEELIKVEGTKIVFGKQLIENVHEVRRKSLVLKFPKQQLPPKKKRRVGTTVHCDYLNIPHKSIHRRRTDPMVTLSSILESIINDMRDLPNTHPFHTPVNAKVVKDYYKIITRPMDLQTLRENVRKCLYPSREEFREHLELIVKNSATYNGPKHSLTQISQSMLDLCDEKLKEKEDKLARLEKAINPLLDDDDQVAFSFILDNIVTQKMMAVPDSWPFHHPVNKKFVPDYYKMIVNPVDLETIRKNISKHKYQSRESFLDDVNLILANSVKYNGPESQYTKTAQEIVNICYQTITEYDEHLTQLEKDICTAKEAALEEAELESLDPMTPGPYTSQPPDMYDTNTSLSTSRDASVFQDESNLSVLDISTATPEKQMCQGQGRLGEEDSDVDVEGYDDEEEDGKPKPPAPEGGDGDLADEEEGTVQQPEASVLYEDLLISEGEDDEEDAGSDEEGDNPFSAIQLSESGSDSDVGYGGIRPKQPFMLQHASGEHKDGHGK

| pIC50 (TAF1L(h)) | pIC50 (PIM1 (h)) | pIC50 (CLK2 (h)) | pIC50 (DYRK2 (h)) | pIC50 (CDKL4(h)) | Compound |
| --- | --- | --- | --- | --- | --- |
| 6.30 to 7.00 | 6.30 to 7.00 | 5.00 to 5.52 | 5.52 to 6.30 | 6.30 to 7.00 | Cc1cc(-c2csc3ccc(-c4cnn(C)c4)nc23)cc(C)n1 [Preparative Example 30, 3-(2,6-dimethylpyridin-4-yl)-5-(1-methyl-1H-pyrazol-4-yl)thieno-[3,2-b]pyridine] |
| 5.52 to 6.30 | 5.00 to 5.52 | 5.00 to 5.52 | 5.00 to 5.52 | 5.52 to 6.30 | Cn1nccc1-c1ccc2scc(-c3ccncc3)c2n1 [Preparative Example 90, 5-(1-methyl-1H-pyrazol-5-yl)-3-(pyridin-4-yl)thieno[3,2-b]pyridine] |
| 6.30 to 7.00 | 6.30 to 7.00 | 5.52 to 6.30 | 5.52 to 6.30 | 6.30 to 7.00 | Cc1cc(-c2csc3ccc(-c4cnn(C)c4)nc23)ccn1 [Preparative Example 15, 5-(1-methyl-1H-pyrazol-4-yl)-3-(2-methylpyridin-4-yl)-thieno[3,2-b]pyridine] |
| 5.52 to 6.30 | 5.00 to 5.52 | 5.00 to 5.52 | 5.00 to 5.52 | 5.52 to 6.30 | COc1cc(-c2ccn(C)n2)nc2c(-c3ccncc3)csc12 [Preparative Example 165, 7-methoxy-5-(1-methyl-1H-pyrazol-3-yl)-3-(pyridin-4-yl)thieno[3,2-b]pyridine] |
| 5.52 to 6.30 | 5.52 to 6.30 | 5.00 to 5.52 | 5.52 to 6.30 | 5.00 to 5.52 | Cn1cc(-c2ccc3scc(-c4ccncc4C#N)c3n2)cn1 [Preparative Example 34, 4-(5-(1-methyl-1H-pyrazol-4-yl)thieno[3,2-b]pyridin-3-yl)nicotino-nitrile] |
| 6.30 to 7.00 | 6.30 to 7.00 | 5.52 to 6.30 | 6.30 to 7.00 | 6.30 to 7.00 | COc1cc(-c2csc3ccc(-c4cnn(C)c4)nc23)ccn1 [Preparative Example 17, 3-(2-methoxypyridin-4-yl)-5-(1-methyl-1H-pyrazol-4-yl)thieno[3.2-b]pyridine] |
| 5.52 to 6.30 | 5.00 to 5.52 | 5.00 to 5.52 | 5.00 to 5.52 | 5.52 to 6.30 | Cn1cc(-c2ccc3scc(-c4ccncc4)c3n2)c(N)n1 [Preparative Example 84, 1-methyl-4-(3-(pyridin-4-yl)thieno[3,2-b]pyridin-5-yl)-1H-pyrazol-3-amine] |
| 6.30 to 7.00 | 6.30 to 7.00 | 5.52 to 6.30 | 6.30 to 7.00 | 6.30 to 7.00 | Cn1cc(-c2ccc3scc(-c4ccc5ncnn5c4)c3n2)cn1 [Preparative Example 53, 3-([1,2,4]-triazolo[1,5-a]pyridin-6-yl)-5-(1-methyl-1H-pyrazol-4-yl)thieno[3,2-b]pyridine] |
| 5.00 to 5.52 | 5.00 to 5.52 | 5.00 to 5.52 | 5.00 to 5.52 | 5.52 to 6.30 | FC(F)(F)n1cc(-c2ccc3scc(-c4ccncc4)c3n2)cn1 [Preparative Example 78, 3-(pyridin-4-yl)-5-(1-(trifluoromethyl)-1H-pyrazol-4-yl)thieno[3,2-b]pyridine] |
| 5.52 to 6.30 | 5.52 to 6.30 | 5.00 to 5.52 | 5.52 to 6.30 | 5.52 to 6.30 | CCn1cc(-c2ccc3scc(-c4ccncc4)c3n2)cn1 [Preparative Example 77, 5-(1-ethyl-1H-pyrazol-4-yl)-3-(pyridin-4-yl)thieno[3,2-b]pyridine] |
| 5.52 to 6.30 | 7.00 to 7.70 | 5.52 to 6.30 | 5.00 to 5.52 | 5.52 to 6.30 | Cn1ncc(-c2ccc3scc(-c4ccncc4)c3n2)c1CC1CC1 [Preparative Example 82, 5-(5-(cyclopropylmethyl)-1-methyl-1H-pyrazol-4-yl)-3-(pyridin-4-yl)thieno[3,2-b]pyridine] |
| 5.52 to 6.30 | 5.52 to 6.30 | 5.00 to 5.52 | 5.00 to 5.52 | 5.00 to 5.52 | Cn1cc(-c2ccc3scc(-c4ccncc4)c3n2)nn1 [Preparative Example 93, 5-(1-methyl-1H-1,2,3-triazol-4-yl)-3-(pyridin-4-yl)thieno[3,2-b]pyridine] |
| 5.52 to 6.30 | 5.00 to 5.52 | 5.00 to 5.52 | 5.00 to 5.52 | 5.00 to 5.52 | Cn1ccc(-c2ccc3scc(-c4ccncc4)c3n2)n1 [Preparative Example 86, 5-(1-methyl-1H-pyrazol-3-yl)-3-(pyridin-4-yl)thieno[3,2-b]pyridine] |
| 5.00 to 5.52 | 5.00 to 5.52 | 5.00 to 5.52 | 5.00 to 5.52 | 5.00 to 5.52 | CC(C)n1cc(-c2ccc3scc(-c4ccncc4)c3n2)cn1 [Preparative Example 79, 5-(1-isopropyl-1H-pyrazol-4-yl)-3-(pyridin-4-yl)thieno[3,2-b]pyridine] |

| Compound | pIC50 (TAF1L(h)) | pIC50 (PIM1 (h)) | pIC50 (CLK2 (h)) | pIC50 (DYRK2 (h)) | pIC50 (CDKL4(h)) |
| --- | --- | --- | --- | --- | --- |
| Cn1cc(-c2ccc3scc(-c4cnn(Cc5ccccc5)c4)c3n2)cn1 | 6.30 to 7.00 | 7.00 to 7.70 | 5.00 to 5.52 | 5.00 to 5.52 | 6.30 to 7.00 |
| Cn1cc(-c2ccc3scc(C(O)c4ccccc4)c3n2)cn1 (stereo not shown) [Preparative Example 74] | 6.30 to 7.00 | 5.52 to 6.30 | 5.52 to 6.30 | 5.00 to 5.52 | 6.30 to 7.00 |
| Cn1cc(-c2ccc3scc(-c4ccnc(C#N)c4)c3n2)cn1 | 6.30 to 7.00 | 5.52 to 6.30 | 5.00 to 5.52 | 5.52 to 6.30 | 6.30 to 7.00 |
